Assay results from US20190375766A1, “PROCESS FOR PREPARING HALOGENATED BICYCLIC SYSTEMS” (Bayer CropScience Aktiengesellschaft, priority 2016, published 2019).

Assay: log P by HPLC-MS
Format: physicochemical

chromatographic logP	Structure (SMILES)
1.66	Cn1c(I)nc2cc(C(F)(F)F)nnc21 [Example 5, 6-iodo-7-methyl-3-(trifluoromethyl)-7H-imidazo[4,5-c]pyridazine]
1.44	Cn1cnc2cc(C(F)(F)F)cnc21 [Example 6, 3-methyl-6-(trifluoromethyl)-3H-imidazo[4,5-b]pyridine]
2.29	Cn1c(I)nc2cc(C(F)(F)F)cnc21 [Example 7, 2-iodo-3-methyl-6-(trifluoromethyl)-3H-imidazo[4,5-b]pyridine]

The remaining lines, values behind:

Structure (SMILES)	chromatographic logP
Cn1cnc2cc(C(F)(F)F)ncc21 [Example 1, 3-methyl-6-(trifluoromethyl)-3H-imidazo[4,5-c]pyridine]	1.09
Cn1c(I)nc2cc(C(F)(F)F)ncc21 [Example 2, 2-iodo-3-methyl-6-(trifluoromethyl)-3H-imidazo[4,5-c]pyridine]	1.77
Cn1c(Br)nc2cc(C(F)(F)F)ncc21 [Example 3, 2-bromo-3-methyl-6-(trifluoromethyl)-3H-imidazo[4,5-c]pyridine]	1.71
Cn1cnc2cc(C(F)(F)F)nnc21 [Example 4, 7-methyl-3-(trifluoromethyl)-7H-imidazo[4,5-c]pyridazine]	0.91
